The structures appear in SMILES notation.

The target of this assay is T1, Human CXCR3 (N-delta 4) (Homo sapiens, UniProt P49682).
T1 construct: CD8 leader (N); Flag; expressed in transfected cells; membrane preparation
T1 sequence (P49682 5-368 limits assumed): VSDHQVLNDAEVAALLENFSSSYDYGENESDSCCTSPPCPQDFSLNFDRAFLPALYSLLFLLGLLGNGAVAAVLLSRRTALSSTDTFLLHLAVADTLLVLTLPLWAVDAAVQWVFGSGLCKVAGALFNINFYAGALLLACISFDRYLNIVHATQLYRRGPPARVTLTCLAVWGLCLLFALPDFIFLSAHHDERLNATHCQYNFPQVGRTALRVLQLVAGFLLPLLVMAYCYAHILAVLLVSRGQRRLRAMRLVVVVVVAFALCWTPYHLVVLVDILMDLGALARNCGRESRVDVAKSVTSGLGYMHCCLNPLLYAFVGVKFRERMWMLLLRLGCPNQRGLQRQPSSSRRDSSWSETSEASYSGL
Description: Human CXCR3 (N-delta 4) Scintillation Proximity Assay (SPA), [125I] IP-10 binding. Particulars: rating; 25 pM [125I] IP-10, Ba/F3-hCXCR3 (N-delta 4) membranes, 3 hr room temperature. The source says: The inventive compounds can readily be evaluated to determine activity at The CXCR3 receptors by known methods, such as, for example, Development of Human CXCR3 (N-delta 4) Binding Assay.
Cloning and Expression of Human CXCR3 (N-delta 4):
The DNA encoding human CXCR3 was cloned by PCR using human genomic DNA (Promega, Madison, Wis.) as a template. The PCR primers were designed based on the published sequence of human orphan receptor GPR9 (1) with incorporated restriction sites, a Kozak consensus sequence, CD8 leader and Flag tag. The PCR product was subcloned into the mammalian expression vector pME18neo, a derivative of the SR-alpha expression vector (designated as pME18Sneo-hCXCR3 (N-delta 4).
IL-3-dependent mouse pro-B cells Ba/F3 were transfected by electroporation in 0.4 ml Dulbecco's PBS containing 4×10^6 cells with 20 μg of pME18Sneo-hCXCR3 (N-delta 4) plasmid DNA. Cells were pulsed at 400 Volts, 100 OHMs, 960 μFd. The transfected cells were under selection with 1 mg/ml G418 (Life Technologies, Gaithersburg, Md.). G418-resistant Ba/F3 clones were screened for CXCR3 expression by specific binding of [^125I] IP-10 (NEN Life Science Products, Boston, Mass.).
Preparation of Ba/F3-hCXCR3 (N-delta 4) Membranes
Ba/F3 cells expressing human CXCR3 (N-delta 4) were pelleted and resuspended in the lysis buffer containing 10 mM HEPES, pH 7.5 and Complete® protease inhibitors (1 tablet per 100 ml) (Boehringer Mannheim, Indianapolis, Ind.) at a cell density of 20×10^6 cells per ml. After 5 minutes incubation on ice, cells were transferred to 4639 cell disruption bomb (Parr Instrument, Moline, Ill.) and applied with 1,500 psi of nitrogen for 30 minutes on ice. Large cellular debris was removed by centrifugation at 1,000×g. Cell membrane in the supernatant was sedimented at 100,000×g. The membrane was resuspended in the lysis buffer supplemented with 10% sucrose and stored at −80° C. Total protein concentration of the membrane was determined by BCA method from Pierce (Rockford, Ill.).
Human CXCR3 (N-delta 4) Scintillation Proximity Assay (SPA)
For each assay point, 2 μg of membrane was preincubated for 1 hr with 300 μg wheat germ agglutinin (WGA) coated SPA beads (Amersham, Arlington Heights, Ill.) in the binding buffer (50 mM HEPES, 1 mM CaCl2, 5 mM MgCl2, 125 mM NaCl, 0.002% NaN3, 1.0% BSA) at room temperature. The beads were spun down, washed once, resuspended in the binding buffer and transferred to a 96-well Isoplate (Wallac, Gaithersburg, Md.). 25 pM of [^125I] IP-10 with tested compounds in a series of titration were added to start the reaction. After 3 hr reaction at room temperature, the amount of [^125I] IP-10 bound to the SPA beads was determined with a Wallac 1450 Microbeta counter.
The Ki values for the various example compounds of the present invention are given in the afore-mentioned Table 1. From these values, it would be apparent to the skilled artisan that the compounds of the invention have excellent utility CXCR3 antagonists.
(In general: In a scintillation proximity assay essentially only radioactivity close to the scintillant gives light.)

Consider `CCNC(=O)c1ccc(N2CCN(C3CCN(Cc4ccc(Cl)cc4)CC3)[C@@H](CC)C2)c(C)n1` [Compound 1], for which the inhibitory constant (Ki) was < 25 nM. In the case of `CC[C@H]1CN(c2ccc(C(=O)NC3CC3)nc2C)CCN1C1CCN(Cc2ccc(OC(F)(F)F)cc2)CC1` [Compound 2] it was < 25 nM. Turning to `CC[C@H]1CN(c2ccc(C(N)=O)nc2C)CCN1C1CCN(Cc2ccc(Cl)cc2)CC1` [Compound 3], the inhibitory constant (Ki) is < 25 nM. For `CC[C@H]1CN(c2ccc(C(N)=O)nc2C)CCN1C1CCN(Cc2ccc(OC(F)(F)F)cc2)CC1` [Compound 4], the Ki is < 25 nM. For `CC[C@H]1CN(c2ccc(C(=O)NC3CC3)nc2C)CCN1C1CCN(C(=O)c2ccc(Cl)c(F)c2)CC1` [Compound 5], the Ki was < 25 nM. Consider `CC[C@H]1CN(c2ccc(C(=O)NC3CC3)nc2C)CCN1C1CCN(C(=O)c2ccc(Cl)cc2)CC1` [Compound 6], for which the inhibitory constant (Ki) is < 25 nM. In the case of `CC[C@H]1CN(c2ccc(C(=O)NC3CC3)nc2Cl)[C@H](C)CN1C1CCN(C(=O)c2ccc(Cl)cc2)CC1` [Compound 7] it was < 25 nM. In the case of `CC[C@H]1CN(c2ccc(C(=O)NC3CC3)nc2C)CCN1C1CCN(C(=O)c2ccc(F)c(F)c2)CC1` [Compound 8] it was < 25 nM; in that of `CC[C@H]1CN(c2ccc(C(=O)NC3CC3)nc2C)[C@H](C)CN1C1CCN(C(=O)c2ccc(Cl)c(F)c2)CC1` [Compound 9], < 25 nM.

Turning to `CC[C@H]1CN(c2ccc(C(N)=O)nc2C)CCN1C1CCN(C(=O)c2ccc(Cl)cc2)CC1` [Compound 10], the Ki was < 25 nM. In the case of `CC[C@H]1CN(c2ccc(C(=O)NC3CC3)nc2C(F)(F)F)[C@H](C)CN1C1CCN(C(=O)c2ccc(Cl)cc2)CC1` [Compound 11] it was 25 to 100 nM; in that of `CC[C@H]1CN(c2cnc(C#N)cc2C)CCN1C1CCN(C(=O)c2ccc(Cl)cc2)CC1` [Compound 12], > 100 nM. In the case of `CC[C@H]1CN(c2ccc(CO)nc2C)CCN1C1CCN(C(=O)c2ccc(Cl)cc2)CC1` [Compound 13] it was > 100 nM; in that of `CC[C@H]1CN(c2cnc(C(N)=O)cc2C)CCN1C1CCN(C(=O)c2ccc(Cl)cc2)CC1` [Compound 14], > 100 nM.

For orientation: Ki means the dissociation constant of the complex between target and ligand, obtained from inhibition or displacement. Lower therefore signals higher affinity.

The values are drawn from US7902199B2, “Heterocyclic substituted piperazine compounds with CXCR3 antagonist activity” (Schering Corporation, priority 2006, dated 2011).
